Experimental data from US11464770B2, “Anticancer pharmaceutical composition” (NATIONAL CANCER CENTER, priority 2016, dated 2022).
Where two headings read alike, the source gives them in different places.

Tested on: breast cancer cell lines (e.g. MDA-MB-231, SK-BR-3, MDA-MB-468, HCC1954)
Experiment: Cell based assay, cell viability (CellTiter-Glo), breast cancer cell lines
Procedure, shortened: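 Cell lines seeded, cultured 24 hours, then exposed to compound at final 0 to 2 μM. After a further 72 hours, viability measured by ATP-detection luminescence (CellTiter-Glo).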

[1] = Breast cancer cell line MDA-MB-231-L/DOX, 72 hours, CellTiter-Glo, read-out: IC50, MDA-MB-231-L/DOX
[2] = Homo sapiens, Breast cancer cell line BT-20, 72 hours, CellTiter-Glo, read-out: IC50, BT-20
[3] = Homo sapiens, Breast cancer cell line HCC1395, 72 hours, CellTiter-Glo, read-out: IC50, HCC1395
[4] = Homo sapiens, Breast cancer cell line HCC1954, 72 hours, CellTiter-Glo, read-out: IC50, HCC1954
[5] = Homo sapiens, Breast cancer cell line JIMT-1, 72 hours, CellTiter-Glo, read-out: IC50, JIMT-1
[6] = Homo sapiens, Breast cancer cell line MCF7, 72 hours, CellTiter-Glo, read-out: IC50, MCF7
[7] = Homo sapiens, Breast cancer cell line MDA-MB-231, 72 hours, CellTiter-Glo, read-out: IC50, MDA-MB-231
[8] = Homo sapiens, Breast cancer cell line MDA-MB-468, 72 hours, CellTiter-Glo, read-out: IC50, MDA-MB-468
[9] = Homo sapiens, Breast cancer cell line SK-BR-3, 72 hours, CellTiter-Glo, read-out: IC50, SK-BR-3

IC50 [1] [nM]	IC50 [2] [nM]	IC50 [3] [nM]	IC50 [4] [nM]	IC50 [5] [nM]	IC50 [6] [nM]	IC50 [7] [nM]	IC50 [8] [nM]	IC50 [9] [nM]	IC50 (Homo sapiens, BT-20 cells, 72 hours treatment, CellTiter-Glo cell viability, read-out: IC50, Breast cancer cell line BT-20) [nM]	IC50 (Homo sapiens, HCC1395 cells, 72 hours treatment, CellTiter-Glo cell viability, read-out: IC50, Breast cancer cell line HCC1395) [nM]	IC50 (Homo sapiens, HCC1954 cells, 72 hours treatment, CellTiter-Glo cell viability, read-out: IC50, Breast cancer cell line HCC1954) [nM]	IC50 (Homo sapiens, JIMT-1 cells, 72 hours treatment, CellTiter-Glo cell viability, read-out: IC50, Breast cancer cell line JIMT-1) [nM]	IC50 (Homo sapiens, MCF7 cells, 72 hours treatment, CellTiter-Glo cell viability, read-out: IC50, Breast cancer cell line MCF7) [nM]	IC50 (Homo sapiens, MDA-MB-231 cells, 72 hours treatment, CellTiter-Glo cell viability, read-out: IC50, Breast cancer cell line MDA-MB-231) [nM]	IC50 (Homo sapiens, MDA-MB-468 cells, 72 hours treatment, CellTiter-Glo cell viability, read-out: IC50, Breast cancer cell line MDA-MB-468) [nM]	IC50 (Homo sapiens, SK-BR-3 cells, 72 hours treatment, CellTiter-Glo cell viability, read-out: IC50, Breast cancer cell line SK-BR-3) [nM]	IC50 (MDA-MB-231-L/DOX cells, 72 hours treatment, CellTiter-Glo cell viability, read-out: IC50, Breast cancer cell line MDA-MB-231-L/DOX) [nM]	SMILES
> 2000	> 2000	> 10000	> 2000	> 10000	> 2000	> 2000	> 2000	1080										COc1cc(C[S+]([O-])c2[nH]c3c(Br)ccc(Cl)c3c(=O)c2C(C)=O)cc(OC)c1 (stereo not drawn) [Compound 59, 3-acetyl-8-bromo-5-chloro-2-((3,5-dimethoxybenzyl)sulfinyl)quinolin-4(1H)-one]
> 2000	> 2000	> 2000	> 2000	> 2000	> 2000	1380	> 2000	850										CC(=O)c1c([S+]([O-])Cc2ccc(C(F)(F)F)o2)[nH]c2c(Br)ccc(Cl)c2c1=O (stereo not drawn) [Compound 72, 3-acetyl-8-bromo-5-chloro-2-(((5-(trifluoromethyl)furan-2-yl)methyl)sulfinyl)quinolin-4(1H)-one]
> 2000	> 2000	> 10000	> 2000	> 10000	> 2000	1550	> 2000	540										CC(=O)c1c([S+]([O-])Cc2cc(C)on2)[nH]c2c(Br)ccc(Cl)c2c1=O (stereo not drawn) [Compound 51, 3-acetyl-8-bromo-5-chloro-2-(((5-methylisoxazol-3-yl)methyl)sulfinyl)quinolin-4(1H)-one]
									> 2000	> 10000	1450	> 10000	> 2000	1950	1760	1210	> 2000	CC(=O)c1c([S+]([O-])Cc2ccc(I)cc2)[nH]c2c(Cl)ccc(Cl)c2c1=O (stereo not drawn) [Compound 83, 3-acetyl-5,8-dichloro-2-((4-iodobenzyl)sulfinyl)quinolin-4(1H)-one]

Further lines, the molecule ahead of its results:

SMILES	IC50 [1] [nM]	IC50 [2] [nM]	IC50 [3] [nM]	IC50 [4] [nM]	IC50 [5] [nM]	IC50 [6] [nM]	IC50 [7] [nM]	IC50 [8] [nM]	IC50 [9] [nM]	IC50 (Homo sapiens, BT-20 cells, 72 hours treatment, CellTiter-Glo cell viability, read-out: IC50, Breast cancer cell line BT-20) [nM]	IC50 (Homo sapiens, HCC1395 cells, 72 hours treatment, CellTiter-Glo cell viability, read-out: IC50, Breast cancer cell line HCC1395) [nM]	IC50 (Homo sapiens, HCC1954 cells, 72 hours treatment, CellTiter-Glo cell viability, read-out: IC50, Breast cancer cell line HCC1954) [nM]	IC50 (Homo sapiens, JIMT-1 cells, 72 hours treatment, CellTiter-Glo cell viability, read-out: IC50, Breast cancer cell line JIMT-1) [nM]	IC50 (Homo sapiens, MCF7 cells, 72 hours treatment, CellTiter-Glo cell viability, read-out: IC50, Breast cancer cell line MCF7) [nM]	IC50 (Homo sapiens, MDA-MB-231 cells, 72 hours treatment, CellTiter-Glo cell viability, read-out: IC50, Breast cancer cell line MDA-MB-231) [nM]	IC50 (Homo sapiens, MDA-MB-468 cells, 72 hours treatment, CellTiter-Glo cell viability, read-out: IC50, Breast cancer cell line MDA-MB-468) [nM]	IC50 (Homo sapiens, SK-BR-3 cells, 72 hours treatment, CellTiter-Glo cell viability, read-out: IC50, Breast cancer cell line SK-BR-3) [nM]	IC50 (MDA-MB-231-L/DOX cells, 72 hours treatment, CellTiter-Glo cell viability, read-out: IC50, Breast cancer cell line MDA-MB-231-L/DOX) [nM]
CC(=O)c1c([S+]([O-])Cc2cc(F)cc(S(F)(F)(F)(F)F)c2)[nH]c2c(Br)ccc(Cl)c2c1=O (stereo not drawn) [Compound 76, 3-acetyl-8-bromo-5-chloro-2-((3-fluoro-5-(pentafluoro--sulfanyl)benzyl)sulfinyl)quinolin-4(1H)-one]	> 2000	> 2000	> 10000	> 2000	> 10000	> 2000	> 2000	> 2000	1720									
CC(=O)c1c([S+]([O-])Cc2ccc([N+](=O)[O-])cc2)[nH]c2c(Br)ccc(Cl)c2c1=O (stereo not drawn) [Compound 33, 3-acetyl-8-bromo-5-chloro-2-((4-nitrobenzyl)sulfinyl)quinolin-4(1H)-one]	> 2000	> 2000	> 10000	> 2000	> 10000	> 2000	> 2000	> 2000	1000									
